Our source for the IC50 and inhibition in vivo values is patent publication US20240294551A1 (AMGEN INC., priority 2022, published 2024).

The target of assay [1] is His-tagged KRAS G12D protein (Homo sapiens (Human), UniProt P01116, G12D). As to the kind of experiment: KRAS G12D TR-FRET Assay. It counts as binding. The settings on record: read-out: KRAS G12D Binding IC50. The procedure, abridged:
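Each incubation ran at room temperature: enzyme with compound for 30 minutes, peptide for one hour, and detection reagents (0.4 nM europium anti-6×His, 5 nM streptavidin-d2) for one hour more. Protein and peptide stocks were each diluted to 20 nM before addition.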

Assay [2] has as its target GDP-bound KRAS protein (aa 1-169), containing both G12D and C118A amino acid substitutions (Homo sapiens (Human), UniProt P01116, C118A/G12D). Description: KRAS G12D Coupled Nucleotide Exchange Assay. It counts as biochemical. The settings on record: read-out: KRAS G12D Coupled Exchange IC50.
The test system of assay [3] is Phosphorylation of ERK1/2 in AsPC-1 cells. As to the kind of experiment: Phospho-ERK1/2 MSD Assay. The class given is cell-based, human. The settings on record: Homo sapiens, ASPC1, 2 h, read-out: 2 h p-ERK (AsPC-1 cells), IC50. The gist of the method:
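Read-out: MSD electrochemiluminescent detection of phosphorylated ERK1/2 in whole-cell lysates, fitted to a 4-parameter logistic curve for IC50. Prior to lysis, AsPC-1 cells (25,000 per well) received a 2 h compound dose-response at 37 °C.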

The subject of another assay is AsPC-1 cells. Description: AsPC-1 CTG Assay (CellTiter-Glo cell viability). The class given is cell-based, human. The settings on record: Homo sapiens, ASPC1, 72 h, AsPC-1, 72 h; first value of the cell; read-out: G12D/C/V Cell Proliferation CTG (72 h) AsPC-1. The procedure, abridged:
(§1)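 IC50 values derive from 4-parameter logistic fits of CellTiter-Glo luminescence, expressed relative to DMSO. Compound dilution series were applied to overnight-seeded AsPC-1 or SW620 cells (RPMI 1640, 10% FBS) for 72 h at 37 °C, 5% CO2.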
In general terms: Cellular ATP, detected with luciferase, serves as a proxy for viable cell number.

Another assay deals with SW620 cells. As to the kind of experiment: SW620 CTG Assay (CellTiter-Glo cell viability). The class given is cell-based, human. The settings on record: Homo sapiens, SW-620; SW620, 72 h; third value of the cell; read-out: G12D/C/V Cell Proliferation CTG (72 h) SW620. The procedure, abridged: as §1
Assay [4] has as its system p-ERK in PANC 04.03 tumor-bearing mice. As to the kind of experiment: Tumor Pharmacodynamic Assay (p-ERK inhibition in PANC 04.03 tumors). It counts as in vivo. The settings on record: Mus musculus; PANC 04.03 tumor-bearing female athymic nude mice; single oral dose 100 mg/kg; tumors harvested 2 hr later; relative to vehicle group. The method, then:
Tumor Pharmacodynamic Assays
Inhibitor pharmacodynamic effects were assessed in PANC 04.03 tumor-bearing mice. PANC 04.03 tumor cells (5.0E+06 cells) were injected subcutaneously into the flank of female athymic nude mice in a mixture with Matrigel (BD Bioscience). Mice received a single oral dose of either vehicle or inhibitor (100 mg/kg) when the average tumor size reached -300-600 mm^3 (n=3/group) and harvested 2 hours later. Tumor samples were collected, snap frozen, and processed for analysis by pulverizing with a cryoPREP® Dry Impactor (Covaris). Pulverized samples were resuspended in RIPA lysis buffer containing protease and phosphatase inhibitors and homogenized. Cleared lysates were analyzed using phospho-ERK1/2 and total ERK1/2 whole cell lysate kits (Meso Scale Discovery) according to the manufacturer's protocol. Phospho-ERK1/2 signal was normalized to total ERK1/2 signal for a given sample, and percent inhibition of p-ERK was calculated relative to the vehicle group.

The subject of another assay is MIA PaCa-2 cells. As to the kind of experiment: MIA PaCa-2 CTG Assay (CellTiter-Glo cell viability). It counts as cell-based, human. The settings on record: Homo sapiens; Mia PaCa-2, 72 h; second value of the cell; read-out: G12D/C/V Cell Proliferation CTG (72 h) Mia PaCa-2. The gist of the method:
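IC50 values come from a 4-parameter logistic fit of CellTiter-Glo luminescence, normalized to DMSO control, after 72 h compound exposure at 37° C, 5% CO2. Cells grew in RPMI 1640 plus 10% FBS and were seeded at 1.67E+04 cells/mL one night before dosing.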

By inhibition in vivo is commonly meant the drop in the measured response relative to a control, in per cent. A lower inhibition in vivo goes with a response near the control.

Chain of His-tagged KRAS G12D protein (P01116 other isoform, or with tags, fused parts or gaps G12D): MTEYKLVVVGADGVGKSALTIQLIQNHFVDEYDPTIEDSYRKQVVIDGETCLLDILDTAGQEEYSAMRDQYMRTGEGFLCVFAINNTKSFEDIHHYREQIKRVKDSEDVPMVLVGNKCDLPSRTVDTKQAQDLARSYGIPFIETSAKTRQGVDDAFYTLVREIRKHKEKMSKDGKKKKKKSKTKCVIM
Chain of GDP-bound KRAS protein (aa 1-169), containing both G12D and C118A amino acid substitutions (P01116 other isoform, or with tags, fused parts or gaps G12D/C118A): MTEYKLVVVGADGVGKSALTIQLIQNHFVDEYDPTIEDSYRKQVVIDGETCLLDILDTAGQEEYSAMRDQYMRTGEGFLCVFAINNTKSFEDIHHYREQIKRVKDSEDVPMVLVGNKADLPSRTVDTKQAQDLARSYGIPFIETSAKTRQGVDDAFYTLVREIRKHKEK

For the molecule `C[C@@]12CCCN(C1)c1nc(OC[C@@]34CCCN3C[C@H](F)C4)nc3c(F)c(c(F)cc13)-c1cc(O)cc3ccc(F)c(c13)CCCC(=O)N2` [Example 15, (15R)-3,22,31-Trifluoro-8-(((2R,7aS)-2-fluorotetrahydro-1H-pyrrolo[1,2-a]pyrrol-7a(5H)-yl)methoxy)-27-hydroxy-15-methyl-7,9,11,16-tetraazahexacyclo[19.7.1.1˜2,6˜.1˜11,15˜.0˜5,10˜.0˜25,29˜]hentriaconta-1(28),2(31),3,5,7,9,21,23,25(29),26-decaen-17-one bis(2,2,2-trifluoroacetate)], the IC50 in assay [1] is 4 nM; in assay [2] it was 3 nM; in assay [3], 19 nM; in the assay on AsPC-1 cells, 141 nM; with SW620 cells it was 80 nM. This molecule returned an inhibition in vivo at 100 mg/kg in assay [4] of 0%.

As to `C[C@@]12CCCCN(C1)c1nc(OC[C@@]34CCCN3C[C@H](F)C4)nc3c(F)c(ncc13)-c1c(c(Cl)cc3[nH]ncc13)CCCCC(=O)N2` [Example 166, (26R)-18-chloro-32-fluoro-4-(((2R,7aS)-2-fluorotetrahydro-1H-pyrrolo[1,2-a]pyrrol-7a(5H)-yl)methoxy)-26-methyl-1,3,5,9,14,15,25-heptaazahexacyclo [24.4.1.1~6,10~.0~2,7~.0~11,19~.0~12,16~]dotriaconta-2,4,6,8,10(32),11,13,16,18-nonaen-24-one], the IC50 stood at 5 nM in assay [1]; 3 nM in assay [2]; 16.2 nM in assay [3]; 68 nM in the assay on AsPC-1 cells; 90 nM in the assay on MIA PaCa-2 cells. In assay [4], 100 mg/kg produced 63% inhibition in vivo.

Consider `O=C1COCCCc2c(Cl)cc3[nH]ncc3c2-c2ncc3c(nc(OC[C@@]45CCCN4C[C@H](F)C5)nc3c2F)N2CC[C@H]3CCN1[C@H]3C2` [Example 168, (29S,33R)-18-chloro-34-fluoro-4-(((2R,7aS)-2-fluorotetrahydro-1H-pyrrolo[1,2-a]pyrrol-7a(5H)-yl)methoxy)-23-oxa-1,3,5,9,14,15,26-heptaazaheptacyclo[24.5.2.1~6,10~.0~2,7~.0~11,19~.0~12,16~.0~29,33~]tetratriaconta-2,4,6,8,10(34),11,13,16,18-nonaen-25-one], for which the IC50 in assay [1] amounted to 3 nM; in assay [2], 1 nM; in assay [3], 1.3 nM; in the assay on AsPC-1 cells, 10 nM; with SW620 cells, 3 nM. At 100 mg/kg the inhibition in vivo in assay [4] was 65%.

In the case of `C[C@@]12COCCN(C1)c1nc(OCC34CCCN3CCC4)nc3c(F)c(ncc13)-c1c(c(Cl)cc3[nH]ncc13)CCCOC(=O)O2` [Example 209, (26S)-18-chloro-32-fluoro-26-methyl-4-(tetrahydro-1H-pyrrolo[1,2-a]pyrrol-7a(5H)-ylmethoxy)-23,25,28-trioxa-1,3,5,9,14,15-hexaazahexacyclo[24.4.1.1~6,10~.0~2,7~.0~11,19~.0~12,16~]dotriaconta-2,4,6,8,10(32),11,13,16,18-nonaen-24-one], the IC50 in assay [1] was 5 nM; in assay [2], 3 nM; in assay [3] it was 3.9 nM; in the assay on AsPC-1 cells, 3 nM; in the assay with SW620 cells, 3 nM. Further, the inhibition in vivo at 100 mg/kg in assay [4] turned out to be 63%.

Turning to `O=C1OCCc2c(Cl)cc3[nH]ncc3c2-c2ncc3c(nc(OC[C@@]45CCCN4C[C@H](F)C5)nc3c2F)N2CCO[C@]3(C2)C[C@H](C3)O1` [Example 248, (1R,3R)-10-chloro-32-fluoro-24-(((2R,7aS)-2-fluorotetrahydro-1H-pyrrolo[1,2-a]pyrrol-7a(5H)-yl)methoxy)-4,6,30-trioxa-13,14,19,23,25,27-hexaazaheptacyclo[25.3.1.1~1,3~.1~18,22~.0~9,17~.0~12,16~.0~21,26~]tritriaconta-9,11,14,16,18(32),19,21,23,25-nonaen-5-one], the IC50 in assay [1] turned out to be 4 nM; in assay [2], 2 nM; in assay [3] it was 7.8 nM; in the assay on AsPC-1 cells, 13 nM; in the assay with MIA PaCa-2 cells, 7 nM. The inhibition in vivo at 100 mg/kg in assay [4] is 85%.
